Reference: article PMC5943947 (Molecules : A Journal of Synthetic Chemistry and Natural …, 2017)

Columns and labels:
[1] = Body weight in B16 melanoma xenograft model; format: in vivo; details: B16 tumor-bearing C57BL/6J mice
Protocol: (§1) Male C57BL/6J mice were employed to establish the xenograft tumor model by subcutaneous injection (S.C.) of 6 × 10^6 B16 cells. […] In the end of treatment, the mice were sacrificed and the tumor were peeled off and weighted. The inhibition rate of tumor growth was calculated. All animal protocols were conformed to the Guidelines for the Care and Use of Laboratory Animals approved by the Animal Care and Use Committee of Yantai University.

[2] = system: MCF-7 cell line; experiment: In vitro antiproliferative activity, MTT assay, MCF-7; format: cell-based; details: Homo sapiens, MCF7, 48 h
Protocol: (§2) HCT116, MCF-7 and B16 cell lines were plated on 96-well plates at a density of 5000 per well and incubated overnight. […] After 48 h, 0.5% MTT (Amresco, Solon, OH, USA) solution was added to each well, and further incubation for 4 h, then cells were centrifuged at 2500 rpm for 15 min and removed from the culture medium. And add 150 μL DMSO to dissolve the formazan. After mixing for 5 min, optical density was detected at 570 nm on a microplate reader (Thermo, Waltham, MA, USA).

[3] = biological target: VEGFR-2 (Homo sapiens, UniProt P35968); experiment: VEGFR-2 inhibitory assay (caliper mobility shift assay)
Chain of VEGFR-2 (P35968 20-1356): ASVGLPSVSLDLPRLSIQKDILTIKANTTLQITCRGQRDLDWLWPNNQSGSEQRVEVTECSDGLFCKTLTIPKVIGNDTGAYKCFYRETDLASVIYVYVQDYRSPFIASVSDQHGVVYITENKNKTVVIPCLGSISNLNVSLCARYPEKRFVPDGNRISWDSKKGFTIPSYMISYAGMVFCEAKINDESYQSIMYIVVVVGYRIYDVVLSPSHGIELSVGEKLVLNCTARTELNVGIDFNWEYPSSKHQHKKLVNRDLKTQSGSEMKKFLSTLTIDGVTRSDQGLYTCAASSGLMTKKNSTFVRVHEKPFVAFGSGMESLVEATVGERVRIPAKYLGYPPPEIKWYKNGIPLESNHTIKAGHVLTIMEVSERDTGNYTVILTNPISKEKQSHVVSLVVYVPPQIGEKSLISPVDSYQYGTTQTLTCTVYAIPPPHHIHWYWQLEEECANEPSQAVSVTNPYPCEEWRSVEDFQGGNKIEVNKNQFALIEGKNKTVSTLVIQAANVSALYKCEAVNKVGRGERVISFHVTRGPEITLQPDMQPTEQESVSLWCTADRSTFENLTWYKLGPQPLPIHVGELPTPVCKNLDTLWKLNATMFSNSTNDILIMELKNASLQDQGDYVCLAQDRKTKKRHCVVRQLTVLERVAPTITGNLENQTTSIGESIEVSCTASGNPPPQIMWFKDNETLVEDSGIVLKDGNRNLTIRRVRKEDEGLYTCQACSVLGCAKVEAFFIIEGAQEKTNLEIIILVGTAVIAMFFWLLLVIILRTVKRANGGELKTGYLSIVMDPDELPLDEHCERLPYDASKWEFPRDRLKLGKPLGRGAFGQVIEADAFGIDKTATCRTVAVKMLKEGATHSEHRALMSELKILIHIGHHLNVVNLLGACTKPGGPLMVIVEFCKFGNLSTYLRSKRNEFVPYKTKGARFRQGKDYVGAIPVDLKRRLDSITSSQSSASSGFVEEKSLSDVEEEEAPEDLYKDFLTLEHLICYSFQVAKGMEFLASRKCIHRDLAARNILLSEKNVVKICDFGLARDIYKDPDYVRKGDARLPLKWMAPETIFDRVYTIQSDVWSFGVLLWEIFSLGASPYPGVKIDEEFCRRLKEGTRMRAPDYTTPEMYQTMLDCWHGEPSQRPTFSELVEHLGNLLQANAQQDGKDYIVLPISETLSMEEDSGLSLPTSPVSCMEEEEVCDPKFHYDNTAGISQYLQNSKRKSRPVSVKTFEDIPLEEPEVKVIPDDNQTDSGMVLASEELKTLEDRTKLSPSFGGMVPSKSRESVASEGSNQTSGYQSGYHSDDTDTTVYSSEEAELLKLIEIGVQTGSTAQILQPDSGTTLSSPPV
Protocol: (§3) Each of these compounds was dissolved in DMSO at 10 mM, diluted to 50× of the final desired highest inhibitor concentration in reaction by 100% DMSO, and 100 μL of each dilution was added to one well on 96-well storage plate, and diluted by transferring 10 μL to 90 μL of 100% DMSO in the next well. Besides, 100 μL of 100% DMSO was added to two empty wells for no compound control and no enzyme control in the same 96-well plate respectively. The plate was marked as source plate. 10 μL of each compound was transferred from the source plate to a new 96-well plate, which was marked as the intermediate plate. Next, 90 μL of 1× kinase base buffer was added to each well of the intermediate plate, and mixed by shaking vigorously for 10 min. A total of 5 μL of each well from the 96-well intermediate plate was transferred to a 384-well plate in duplicate.
(§4) Kinase reaction: kinase in 1× kinase base buffer, FAM-labeled peptide and ATP in the 1× kinase base buffer were added, then 10 μL of 2.5× enzyme solution was added to each well of the 384-well assay plate. After incubating at room temperature for 10 min, 10 μL of 2.5× peptide solution was added to each well of the 384-well assay plate. […] Finally, the kinase reactions were quenched with 25 μL of EDTA and the plates were washed. The dates were collected and converted with the caliper program.

[4] = system: HCT116 cell line; experiment: In vitro antiproliferative activity, MTT assay, HCT116; format: cell-based; details: Homo sapiens, HCT-116, 48 h
Protocol: as §2

[5] = system: B16 melanoma xenograft; experiment: In vivo antitumor activity, B16 melanoma xenograft model; details: 90 mg/kg for 14 days (text: orally; table footnote: i.p.), C57BL/6J mice
Protocol: as §1

[6] = biological target: EGFR (Homo sapiens, UniProt P00533); experiment: EGFR inhibitory assay (caliper mobility shift assay)
Chain of EGFR (P00533 25-1210): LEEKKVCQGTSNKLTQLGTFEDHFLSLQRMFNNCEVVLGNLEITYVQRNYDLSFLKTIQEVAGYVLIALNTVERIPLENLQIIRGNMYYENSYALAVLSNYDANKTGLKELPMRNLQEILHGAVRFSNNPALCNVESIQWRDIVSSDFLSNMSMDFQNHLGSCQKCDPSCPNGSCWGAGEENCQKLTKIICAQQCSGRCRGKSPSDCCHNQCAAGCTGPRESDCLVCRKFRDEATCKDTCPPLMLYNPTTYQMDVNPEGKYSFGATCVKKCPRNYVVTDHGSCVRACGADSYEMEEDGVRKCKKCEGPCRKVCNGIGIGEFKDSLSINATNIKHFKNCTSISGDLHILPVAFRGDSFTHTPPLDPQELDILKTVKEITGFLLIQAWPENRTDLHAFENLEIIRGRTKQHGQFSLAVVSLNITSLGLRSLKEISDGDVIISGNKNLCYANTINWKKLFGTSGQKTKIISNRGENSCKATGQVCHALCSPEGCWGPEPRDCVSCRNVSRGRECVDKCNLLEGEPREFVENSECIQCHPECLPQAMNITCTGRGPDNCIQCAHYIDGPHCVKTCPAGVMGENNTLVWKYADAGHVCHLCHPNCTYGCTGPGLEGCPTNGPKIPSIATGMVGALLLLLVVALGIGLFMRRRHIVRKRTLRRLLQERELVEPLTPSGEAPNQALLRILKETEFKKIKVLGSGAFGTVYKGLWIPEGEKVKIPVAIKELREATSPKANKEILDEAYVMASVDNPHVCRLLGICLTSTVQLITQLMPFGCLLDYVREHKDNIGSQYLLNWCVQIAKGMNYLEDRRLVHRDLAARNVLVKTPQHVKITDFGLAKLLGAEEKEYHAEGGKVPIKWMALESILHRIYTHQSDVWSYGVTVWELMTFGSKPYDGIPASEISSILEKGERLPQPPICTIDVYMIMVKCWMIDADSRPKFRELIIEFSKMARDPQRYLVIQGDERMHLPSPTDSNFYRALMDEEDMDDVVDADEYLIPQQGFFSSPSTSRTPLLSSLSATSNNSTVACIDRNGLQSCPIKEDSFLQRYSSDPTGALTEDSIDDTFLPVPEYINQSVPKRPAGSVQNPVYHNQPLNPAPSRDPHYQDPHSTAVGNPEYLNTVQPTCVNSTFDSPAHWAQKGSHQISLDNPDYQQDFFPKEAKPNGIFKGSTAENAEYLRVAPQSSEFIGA
Protocol: as §3, §4

[7] = system: B16 cell line; experiment: In vitro antiproliferative activity, MTT assay, B16; format: cell-based; details: Mus musculus, 48 h
Protocol: as §2

COc1cc2ncnc(Sc3cccc(NC(=S)Nc4ccc(Br)c(C(F)(F)F)c4)c3)c2cc1OC [Compound 10q, 1-(4-Bromo-3-trifluoromethylphenyl)-3-[3-(6,7-dimethoxyquinazolin-4-ylsulfanyl)phenyl] thiourea]
Body Weight End ([1]; 90 mg/kg for 14 days, end of treatment): 20.2 ± 2.7 g
Body Weight Initial ([1]; 90 mg/kg, before treatment): 19.1 ± 2.7 g
IC50 [2]: 15.7 µM
melting point: 150.3 to 152 °C
IC50 [3]: 0.08 µM
IC50 [4]: 8.35 µM
Inhibition Rate of tumor growth [5]: 64.06%
Tumor Weight [5]: 0.46 ± 0.14 g
IC50 [6]: 0.01 µM
IC50 [7]: 5.57 µM
